Measured values published in patent US20110313153A1, “5-HT4 INHIBITORS FOR TREATING AIRWAY DISEASES, IN PARTICULAR ASTHMA” (priority 2009, published 2011).
“Also recorded” adds a separate entry of the source.

Key:
dog [1] = test: Canine antral motility measured with chronically implanted strain gauges; type: in vivo; conditions: data not shown
Source text: (§1) Also the aroylated 4-aminomethylpiperidines 5-HT4 receptor antagonists (hereinafter also referred to as the compounds) of the present invention (e.g. compound M0014) were capable to suppress or inverse the 5-HT4 R-mediated prokinetic activity of serotonin or 5-HT4 R agonists in the GI tract (data not shown). For example, in conscious dogs, low doses of M0014 reversed the selective serotonin re-uptake inhibitor (SSRI)-induced loss of fundic compliance. […] As a final example, the compound reversed the 5-HT4 R agonist-induced stimulation of canine antral motility, measured with chronically implanted strain gauges.

conscious dogs = test: SSRI-induced loss of fundic compliance in conscious dogs; type: in vivo, dog; conditions: low doses, data not shown
Source text: as §1

GI tract [2] = test: Effect of the antagonist by itself on the studied GI functions; type: in vivo, dog; conditions: without agonist
Source text: as §1
Similar to SB-207266, the 5-HT4 R antagonist M0014 had by itself no effect on the studied GI functions mentioned above.

Balb/c mice = test: Zymosan induced inflammatory cell recruitment to the lung; type: in vivo, Female Balb/c mice
Procedure: Female Balb/c mice (7-8 weeks; 20 g) were used in all studies. The animals were kept in standard animal holding facilities and have unlimited access to food and water. Animals were randomized to receive vehicle or 0.1-0.2 ml/20 g mouse, M0014 (0.001, 0.01, 0.1 and 1 mg/kg) via the oral route 30 min prior to, and 6 h after the administration of zymosan (i.n; 20 μL to each nostril, to give a total volume of administration of 40 μL). Animals received zymosan A to give a total dose of 4 mg/mouse.
5 mg of M0014 was dissolved in 5 mL of sterile water to give 1 mg/ml solution. The solutions were prepared freshly each time. The 1 mg/ml solution was diluted to a 0.1, 0.01, 0.001 and 0.0001 mg/ml solution. From these concentrations, 0.2 ml was administered orally to obtain 1, 0.1, 0.01 and 0.001 mg/kg respectively. Sterile water used as control vehicle.
Twenty-four hours after dosing, the mice were killed by overdose with an injectable anaesthetic and 0.5 ml of saline was injected into lung via a tracheal cannula and the fluid collected. This was repeated 3 times. Approximately 1 ml of lavage fluid was collected and stored on ice. Total cells and differential cells were counted and a reduction in neutrophil numbers was the primary end point.

dog [3] = test: Dog model of delayed gastric emptying of a liquid meal; type: in vivo; conditions: data not shown
Source text: as §1

OVA-sensitized mice [4] = test: OVA-induced experimental asthma in mice: BAL cell infiltrate and MLN cytokines; type: in vivo, BALB/c mice
Procedure: (§2) BALB/c mice (n=6-8 per group) were sensitized to OVA by i.p. injection of OVA/alum (10 μg OVA grade V adsorbed to 1 mg aluminium hydroxide; Sigma-Aldrich) on days 0 and 7 and were subjected to OVA aerosol challenges (grade III) on days 17-19; aerosol challenges were dispensed from a jet nebulizer delivering 1% OVA in PBS for 30 minutes. Thirty minutes before each OVA exposure, mice were anesthetized using Avertin (Sigma-Aldrich) and received an i.t. injection of control vehicle, or of M0014 (0.1, 0.4 or 4 nM in PBS) in a volume of 80 μl. Twenty-four hours after the last OVA exposure, BAL was performed and LNs were resected and digested using collagenase/DNAse.
Flow cytometry and sorting. After counting and washing, BAL cells were stained for 30 minutes with FITC-labeled anti-I-Ad/I-Ed (macrophages/DCs), PE-labeled anti-CCR3 (eosinophils), Cy-chrome-labeled anti-CD3 and anti-CD19 (lymphocytes), and allophycocyanin-labeled (APClabeled) anti-CD11c (macrophages/DCs) in PBS containing 0.5% BSA and 0.01% sodium azide. Differential cell counts were analyzed by flow cytometry, as previously described (van Rijt et al., 2004).
Cytokine measurements. To measure cytokine levels, MLN cells were plated in round-bottomed 96-well plates (1×10^6 cells/ml) and restimulated with OVA (10 μg/ml) for 4 days. The presence of IL-4, IL-5, IL-13 and IFN-γ was assayed on supernatants by ELISA (BD).

OVA-sensitized mice [5] = test: Bronchial hyperreactivity (BHR) to i.v. metacholine, dynamic resistance and compliance; type: in vivo, BALB/c mice; conditions: M0014 prior to each allergen challenge; measured 24 hours after the last OVA aerosol; FIG. 2
Procedure: as §2
For the measurement of dynamic resistance and compliance, mice were anesthetized with urethane, paralyzed using d-tubocurarine, tracheotomized, and intubated with an 18-gauge catheter, followed by mechanical ventilation with a Flexivent apparatus (SCIREQ). Respiratory frequency was set at 120 breaths per min with a tidal volume of 0.2 ml and a positive end-expiratory pressure of […]. Increasing concentrations of metacholine were administered via the jugular vein. Dynamic resistance and compliance was recorded after a standardized inhalation maneuver given every 10 seconds for 2 minutes. Baseline resistance was restored before administering the subsequent doses of metacholine.

guinea-pigs = conditions: antigen induced, guinea pig model; cited from earlier work
[6] = test system: human airway epithelial cells, dendritic cells, monocytes; conditions: no effect of the antagonist per se described; cited from earlier work
GI tract [7] = conditions: Sanger et al., cited from earlier work
[8] = MLN cells restimulated with OVA for 4 days, ELISA, FIG. 1C and D
[9] = i.t. 80 μl, 0.1, 0.4 or 4 nM, 30 minutes prior to each allergen challenge, FIG. 1A

SMILES: COCCCN1CC[C@@H](CNC(=O)c2cc(C)cc3c2OCCCO3)[C@H](O)C1 (relative stereo) [M0014, (3S-trans)-8-methyl-3,4-dihydro-3H-benzo[b][1,4]dioxepine-6-carboxylic acid [3-hydroxy-1-(3-methoxy-propyl)-piperidine-4-ylmethyl]-amide]
- 5-HT4 R agonist-induced stimulation of canine antral motility (dog [1]): reversed
- SSRI-induced loss of fundic compliance (conscious dogs): reversed
- effect by itself on the studied GI functions (GI tract [2]): no effect
- neutrophil cell number (Balb/c mice; FIG. 3 legend, <0.05 cf zymosan alone): significant effect
- total number of cells recruited to the airways (Balb/c mice; oral, 0.01 and 0.1 mg/kg, 30 min prior to and 6 h after zymosan, P<0.05 Dunnett's test versus control, FIG. 3a): significant effect; also recorded: significantly reduced
- decrease in the recruitment of neutrophils to the airways (Balb/c mice; oral, 0.01 and 0.1 mg/kg, P<0.01 Dunnett's test vs control, FIG. 3c): 40-50%
- 5-HT4 R agonist-induced acceleration of gastric emptying (dog [3]): potently inhibited
- IFN-γ production in the MLNs (OVA-sensitized mice [4]; [8]): weak increase
- levels of IL-4 in the MLNs (OVA-sensitized mice [4]; [8]): mildly but significantly reduced
- levels of IL-5 in the MLNs (OVA-sensitized mice [4]; [8]): mildly but significantly reduced
- levels of IL-13 in the MLNs (OVA-sensitized mice [4]; [8]): mildly but significantly reduced
- eosinophil infiltrate into the BAL compartment (OVA-sensitized mice [4]; [9]): significant dose-dependent reduction
- lymphocyte infiltrate into the BAL compartment (OVA-sensitized mice [4]; [9]): significant dose-dependent reduction
- macrophage infiltrate into the BAL compartment (OVA-sensitized mice [4]; [9]): significant dose-dependent reduction
- OVA-induced change in metacholine responsiveness (OVA-sensitized mice [5]): markedly attenuated

SMILES: Cn1cc(C(=O)OCC2CCN(CCNS(C)(=O)=O)CC2)c2ccccc21 [GR113808]
- airway hyperresponsiveness (guinea-pigs): capable to normalize

SMILES: COc1cc(COc2cc(N)c(Cl)cc2C(=O)CCC2CCN(CCNS(C)(=O)=O)CC2)cc(OC)c1 [RS 39604]
- effects of 5-HT [6]: inhibit

SMILES: CCCCN1CCC(CNC(=O)c2c3n(c4ccccc24)CCCO3)CC1 [piboserod]
- 5-HT4 R-mediated effects of serotonin (5-HT) in the GI tract (GI tract [7]; 2000, Bharucha et al.): antagonizes
- normal bowel motility (GI tract [7]; animals or humans, 1998): does not seem to affect
